Columns and labels:
[1] = system: HER3 phosphorylation in A549 cells; experiment: Reactivation study: pHER3 ELISA in A549 cells; assay type: cell-based, human
Procedure: Experiments were performed in triplicate wells and repeated at least 2 times. Results are expressed as mean±SD.
A549 cells were plated in Ham's F-12 medium (Gibco), all media supplemented with 10% FBS (Hyclone, Logan, Utah) and 1× L-glutamine (Gibco). Cells were serum-starved overnight. […] Cells were washed with cold PBS after their respective treatment time points and lysed using RIPA buffer (20 mM Tris-HCl pH 7.5, 1% Igepal, 1% sodium deoxycholate, 150 mM NaCl, 0.1% SDS, 1% Triton X-100) containing 200 μM phenylmethanesulfonylfluoride (PMSF) (Fluka Biochemica), 200 μM Halt protease inhibitor cocktail kit (Pierce Biotechnology), and 200 μM sodium orthovanadate (Sigma-Aldrich, St. Louis, Mo.). The lysates were passed through QIA shredder columns (Qiagen) and the flow-through quantitated using a spectrophotometer (Beckman Coulter, Fullerton, Calif.). Proteins, 50 μg per well, were analyzed in duplicate for pHER3 using ELISA Duoset (R&D systems) according to manufacturer's protocol.

HCC-1569 = HCC-1569 breast cancer xenograft, U1-59 and lapatinib; assay type: in vivo, mouse; settings: HCC-1569 xenograft
BxPC3 [2] = experiment: BxPC3 xenograft in SCID mice, combination with Erbitux; assay type: in vivo, mouse; settings: BxPC3 with Matrigel, CB17 SCID mice, weekly i.p. for six weeks
Procedure: 5×10^6 BxPC3 cells were inoculated subcutaneously with Matrigel into CB17 SCID mice. After tumor volumes had reached 200 mm^3, mice were randomized into individual treatment groups. […] All antibodies were dosed at a single loading dose of 50 mg/kg/week, followed by weekly injections of 25 mg/kg for six weeks. Control arms received bi-weekly administrations of Gemcitabine (120 mg/kg), weekly pooled human IgG or weekly vehicle (PBS) injections. The regimens are detailed in TABLE 9 below.

A549 cells = experiment: Anchorage-independent growth of A549 cells; assay type: cell-based, human; settings: A549, 10 μg/mL, 10 days
Source text: (§1) Tumor cell colonies formed in the absence of exogenous ligand for 10 days and were stained with MTT and quantified using a Scanalyzer HTS camera imaging system.

BxPC3 [3] = experiment: BxPC3 pancreatic tumor xenograft in SCID mice (established tumors); assay type: in vivo, mouse; settings: BxPC3, CB17 SCID mice; for tumor growth: 50 mg/kg then 25 mg/kg once weekly i.p.
Procedure: As controls sets of mice treated with either the vehicle control, PBS, or the established therapeutic antibody, Erbitux, were included. 5×10^6 BxPC3 cells were inoculated subcutaneously without Matrigel into CB17 SCiD mice. […] Thereafter the mice received once weekly 25 mg/kg injections for the duration of the study.

[4] = target: T1, reduced, denatured HER-3-His tagged purified ECD protein (Homo sapiens, UniProt P21860); experiment: Dot blot analysis of reduced, denatured HER-3 ECD; assay type: binding
T1 construct: The extracellular domain of HER-3 (ECD) cDNA was cloned by polymerase chain reaction (PCR); His (C); made in house; host or cells: HEK293

Calu-3 NSCLC xenografts = experiment: Calu-3 NSCLC xenograft, U1-59 with panitumumab or erlotinib; assay type: in vivo, mouse; settings: Calu-3, twice a week; 100 μg U1-59, 100 μg panitumumab, 25 μg erlotinib
Procedure: (§2) To determine in vivo efficacy, mice bearing ˜200 mm^3 Calu-3 NSCLC xenografts were treated twice a week with anti-HER family inhibitors or control. Other experiments were done with A549 cells.

[5] = Serum concentration of U1-59 at necropsy; assay type: in vivo, mouse
Procedure: (§3) Inhibition of pHER in the BxPC3 xenograft tumors was analyzed by western blotting. A PK/PD/Efficacy model (based on Simeoni et al. (2004) Cancer Res. 64:1094-1101) was used to prospectively select dose and schedule for further testing. To confirm the PK/PD/Efficacy model, BxPC3 pancreatic tumor-bearing mice were treated with 400 μg/mouse biweekly and 200 μg/mouse biweekly, weekly and twice a week. […] The relationship between drug concentration, inhibition of pHER-3 in animals, and interspecies PK scaling was used to select the minimally effective dose for the first in human study.

A549 NSCLC xenograft = A549 NSCLC xenograft model; assay type: in vivo, mouse; settings: vs IgG control or other HER mAbs
Procedure: as §2, §1

[6] = system: SkBr-3 breast cancer cells; experiment: Anchorage-independent growth of SkBr-3 cells; assay type: cell-based, human
Procedure: (§4) IgG was used as a negative control for all studies. Tumor cell colonies formed in the absence or presence of HRG for 6 to 10 days and were stained with MTT for 4 to 6 hours and quantified.

[7] = system: HER-3 phosphorylation (pHER-3); experiment: Pharmacodynamic pHER-3 immunoblot of BxPC3 tumor xenografts; assay type: in vivo, mouse; settings: 500 μg on day 1 and day 4, sacrificed day 5
Procedure: The inhibition of HER-3 in the human pancreatic tumors could also be shown in a pharmacodynamic experiment. The BxPC3 tumor xenografts were grown as described above. […] The mice were treated on day 1 and day 4 and then sacrificed on day 5 to measure the antibody-dependent inhibition of HER-3 phosphorylation (pHER-3).
The tumors were homogenized in a standard RIPA buffer with protease inhibitors. 50 μg clear lysate was separated on a 4-20% Tris-glycine gel, transferred onto a nitrocellulose membrane and blocked in 3% bovine serum albumin (BSA). Immunoblotting was performed using an anti-pHER-3 antibody (antibody 21D3, Cell Signaling technology). An anti-actin antibody (AB a-2066, Sigma) was used as a control.
Expression was detected by enhanced chemiluminescence (Amersham Biosciences, Piscataway, N.J.). The images were captured with the Versadoc 5000 Imaging System (BioRad, Hercules, Calif.). […] See, FIG. 20 of US Publication No. 20080124345.

rat HER-3 = target: T2, rat HER-3 (Rattus norvegicus, UniProt Q62799); experiment: ELISA cross-reactivity with rat HER-3; assay type: binding
T2 construct: The cDNAs expressing the ECD of human and rat HER-3 were cloned into mammalian expression vectors as V5-His fusion proteins; V5-His; made in house; host or cells: mammalian expression vector; HEK 293T is named only for the chimeras
T2 sequence (Q62799 20-643 limits assumed): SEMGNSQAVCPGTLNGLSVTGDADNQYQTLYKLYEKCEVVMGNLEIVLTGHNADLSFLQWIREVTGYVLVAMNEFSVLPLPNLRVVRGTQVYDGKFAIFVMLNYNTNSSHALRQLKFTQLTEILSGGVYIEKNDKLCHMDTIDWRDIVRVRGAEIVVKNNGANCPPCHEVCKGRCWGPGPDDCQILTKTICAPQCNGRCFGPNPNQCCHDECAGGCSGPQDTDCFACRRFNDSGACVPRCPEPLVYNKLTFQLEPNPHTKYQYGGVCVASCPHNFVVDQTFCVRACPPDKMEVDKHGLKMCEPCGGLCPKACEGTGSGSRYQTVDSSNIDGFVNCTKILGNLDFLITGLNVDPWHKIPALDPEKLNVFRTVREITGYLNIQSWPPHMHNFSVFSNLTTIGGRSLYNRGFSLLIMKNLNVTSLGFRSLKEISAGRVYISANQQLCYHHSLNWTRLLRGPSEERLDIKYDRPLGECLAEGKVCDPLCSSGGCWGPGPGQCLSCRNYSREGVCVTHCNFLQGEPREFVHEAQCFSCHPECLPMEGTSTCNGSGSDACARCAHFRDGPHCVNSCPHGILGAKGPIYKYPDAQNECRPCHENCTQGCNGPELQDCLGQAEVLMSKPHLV
Source text: The extra-cellular domain (ECD) of Human HER-3 cDNA was amplified from RAT1-HER-3 cells. The rat HER-3 cDNAs was amplified by RT-PCR from rat liver RNA and confirmed by sequencing. The cDNAs expressing the ECD of human and rat HER-3 were cloned into mammalian expression vectors as V5-His fusion proteins. Domains from the human HER-3 ECD were swapped into the scaffold provided by the rat HER-3 ECD by using the Mfe1, BstX1 and DraIII internal restriction sites. By this means, various chimeric rat/human HER-3 ECD HIS fusion proteins (amino acids 1-160, 161-358, 359-575, 1-358, 359-604) were constructed and expressed via transient transfection of HEK 293T cells. Expression of the constructs was confirmed using a rat polyclonal antibody against human HER-3. The human monoclonal antibodies were tested in ELISA for binding to the secreted chimeric ECDs.

MDA-MB-435 cells = experiment: Anchorage-independent growth of MDA-MB-435 cells; assay type: cell-based, human; settings: basal MDA-MB-435
Procedure: as §4

[8] = target: T3, L1-S1 extra-cellular domains of HER-3 (Homo sapiens, UniProt P21860); experiment: ELISA binding to truncated L1-S1 HER-3 protein
T3 construct: L1 domain (aa 19-184), in the S1 (aa 185-327); V5-His (C); made in house; host or cells: HEK 293T (supernatant)

[9] = system: MDA-MB-175VII breast cancer cells; experiment: Proliferation of MDA-MB-175VII cells (ALOMAR BLUE); assay type: cell-based, human; settings: four days
Procedure: After four days, the growth of treated cells was measured with ALOMAR BLUE™.

[10] = Interspecies scaling of U1-59 PK to human; settings: estimated by interspecies scaling (mice, rat, monkeys)
Procedure: as §3

pHER-3 = pHER-3 in BxPC3 xenograft tumors (quantitative Western blot); assay type: in vivo, mouse; settings: for inhibition of pHER-3: quantitative Western blot
Procedure: as §3

[11] = system: BxPC3 pancreatic xenografts; experiment: BxPC3 xenograft dose/schedule efficacy (PK/PD/Efficacy model); assay type: in vivo, mouse; settings: vs IgG control
Procedure: as §3

[12] = system: HER-3 phosphorylation in MCF-7 cells; experiment: HRG-β induced HER-3 phosphorylation in MCF-7 cells (ELISA); assay type: cell-based, human; settings: 10 nM HRG-β for 10 min, read-out: IC50, inhibition of phosphorylation of HER-3
Procedure: Lysates were transferred to 1B4 (mouse anti-HER-3 mAb) ELISA plates and phosphorylation of HER-3 was analyzed with antibody 4G10. […] See, FIG. 7b of US Publication No. 20080124345.

[13] = A549, 24 hours, 50 μg/ml U1-59, 5 μM gefitinib

For `COc1cc2ncnc(Nc3ccc(F)c(Cl)c3)c2cc1OCCCN1CCOCC1` [gefitinib, 4-(3-chloro-4-fluorophenylamino)-7-methoxy-6-[3-(4-morpholinyl)propoxy]quinazoline], the HER3 phosphorylation ([1]; A549, 1 hour, 5 μM gefitinib) was “partial inhibition of HER phosphorylation” and the HER3 phosphorylation [1, 13] was “reversed to control levels after 24 hours”.

In the case of `CS(=O)(=O)CCNCc1ccc(-c2ccc3ncnc(Nc4ccc(OCc5cccc(F)c5)c(Cl)c4)c3c2)o1` [lapatinib, N-[3-chloro-4-[(3-fluorobenzyl)oxy]phenyl]-6-[5-[[[2-(methylsulfonyl)ethyl]amino]methyl]furan-2-yl]quinazolin-4-amine bis(4-methylbenzene-sulfonate)monohydrate, reference compound], the tumor growth (HCC-1569) is reported as “some, but not significant tumor growth inhibition”.

In the case of “U1-59: human anti-HER-3 antibody, SEQ ID NO: 70/72”, the tumor growth (BxPC3 [2]) is reported as “delayed the growth of the human pancreatic tumors to the same degree as Gemcitabine”, the HER3 phosphorylation [1, 13] is reported as “greater inhibition of HER phosphorylation that was sustained after 24 hours” and the tumor growth (HCC-1569) is reported as “did not inhibit HCC-1569 tumor growth”. For the same molecule, the “inhibition of colony growth” value (A549 cells) was 50%, the “delay of tumor growth compared with Erbitux” value (BxPC3 [3]) was “more effective than the EGF-R-targeting antibody Erbitux at delaying tumor growth” and the tumor growth (BxPC3 [3]) was “reduced the growth of the human pancreatic tumors in a cytostatic fashion”. For the same molecule, the “binding in dot blot analysis” value [4] was “absence of binding”, the tumor growth (Calu-3 NSCLC xenografts) was “greatly reduced tumor growth as compared to control” and the “Serum concentration at necropsy, mean (SD)” value (shortened to “Serum concentration … (SD)”) ([5]; 200 μg/mouse biweekly) was 0.45 (0.21) μg/mL. The “Serum concentration … (SD)” value ([5]; 200 μg/mouse twice a week) was 34.9 (9.1) μg/mL, the “Serum concentration … (SD)” value ([5]; 200 μg/mouse weekly) was 3.08 (0.82) μg/mL and the “Serum concentration … (SD)” value ([5]; 400 μg/mouse biweekly) was 2.07 (0.97) μg/mL. The tumor growth (A549 NSCLC xenograft) was “tumor stasis”, the “inhibition of colony growth” value [6] was 50% and the “phosphorylation of HER-3 in tumors” value [7] was “no longer detectable”. The “Rat XR (cross-reactive)” value (rat HER-3) was “cross-reacted with rat HER-3 and Yes”, the “colony growth / colony formation” value (MDA-MB-435 cells) was “did not inhibit colony growth” and the “binding to the L1-S1 protein” value [8] was “bound to the L1-S1 protein”. The “reduction of HRG-stimulated proliferation” value [9] was “up to 40%”, the “clearance (CL) in man” value [10] was 11 mL/day/kg and the “initial volume of distribution (Vd) in man” value [10] was 0.028 L/kg. For the same molecule, the “inhibition of pHER-3” value (pHER-3; 200 μg/mouse biweekly) was 58%, the “inhibition of pHER-3” value (pHER-3; 200 μg/mouse twice a week) was 20% and the “inhibition of pHER-3” value (pHER-3; 200 μg/mouse weekly) was 23%. For the same molecule, the “inhibition of pHER-3” value (pHER-3; 400 μg/mouse biweekly) was 30%, the “trough concentration needed to achieve 90% maximal pHER-3 inhibition (IC90)” value (pHER-3; BxPC3 xenograft mice, estimated) was roughly 3 μg/ml and the “inhibition of tumor growth” value ([11]; 200 μg/mouse biweekly) was 33%. The “inhibition of tumor growth” value ([11]; 200 μg/mouse twice a week) was 70%, the “inhibition of tumor growth” value ([11]; 200 μg/mouse weekly) was 74% and the “inhibition of tumor growth” value ([11]; 400 μg/mouse biweekly) was 50%.

With “panitumumab: fully human monoclonal antibody specific to EGF-R [reference compound]” the tumor growth (Calu-3 NSCLC xenografts) was “greatly reduced tumor growth as compared to control”.

B1: U1-53: anti-HER-3 antibody, SEQ ID NO: 54/56 (antibody, V domains shown)
VH: EVQLVESGGGLVQPGGSLRLSCAASGFTFSIYSMNWVRQAPGKGLEWVSYISSSSSTIYYADSVKGRFTISRDNAKNSLYLQMNSLRDEDTAVYYCARDRGDFDAFDIWGQGTMVTVSS
VL: DIQMTQSPSSLSASVGDRVTITCQASQDITNYLNWYQQKPGKAPKLLIYDASNLETGVPSRFSGSGSGTDFTFTISSLQPEDIATYNCQQCENFPITFGQGTRLEIK
For B1, the tumor growth (BxPC3 [2]) was “delayed the growth of the human pancreatic tumors to the same degree as Gemcitabine”, the IC50 [12] was 0.14 nM and the “delay of tumor growth compared with Erbitux” value (BxPC3 [3]) was “more effective than the EGF-R-targeting antibody Erbitux at delaying tumor growth”. For the same molecule, the tumor growth (BxPC3 [3]) was “reduced the growth of the human pancreatic tumors in a cytostatic fashion”, the “binding in dot blot analysis” value [4] was “absence of binding” and the “Rat XR (cross-reactive)” value (rat HER-3) was “No”.
